Laboratory results published in patent publication US8063101B2, “Carotenoid analogs and derivatives for the prevention of platelet aggregation” (Cardax Pharmaceuticals, Inc., priority 2007, dated 2011).
Values joined by “and” are separate entries in the source; they are usually repeats but may differ in a detail not shown here. Equal entries are not always repeated.

Legend:
Aqueous dispersibility = assay type: physicochemical; details: sterile-filtered deionized water
Excerpt: In some embodiments, highly water-dispersible C40 carotenoid derivatives may include natural source RRR-lutein (β,ε-carotene-3,3′-diol) derivatives. Derivatives may be synthesized by esterification with inorganic phosphate and succinic acid, respectively, and subsequently converted to the sodium salts. Deep orange, evenly colored aqueous suspensions were obtained after addition of these derivatives to USP-purified water. […] Aqueous suspensions may be obtained without the addition of heat, detergents, co-solvents, or other additives.
Disodium disuccinate astaxanthin (DDA; see FIG. 1B) was synthesized from commercially available crystalline astaxanthin (Buckton Scott, India) as previously described in Frey, et al. (“The efficient synthesis of disodium disuccinate astaxanthin (Cardax).” Org Process Res Dev 8: 796-801, 2004.). The final product purity was 97% (as area under the curve) by HPLC analysis. DDA was dissolved directly in sterile-filtered deionized water. The maximum aqueous dispersibility of DDA is approximately 10 mM, or 8.64 mg/ml. Vehicle consisted of isotonic sterile 0.9% NaCl solution.

[1] = tested on: left carotid artery (LCA) thrombosis; assay: Canine thrombosis model: left carotid artery reocclusion following rt-PA fibrinolytic therapy; assay type: in vivo, beagle dogs; details: for Incidence of Re-occlusion: 0.9% NaCl group 5/7; for Platelet Count (Post rt-PA) / Time to thrombolysis: mean±SEM; for reduction in thrombus weights compared to 0.9% NaCl solution: end of protocol
Experimental: The experimental model used is a modification of that described by Hong, et al., (Thromb Res 117: 333-342, 2006), Rebello, et al., (Arterioscler Thromb Vasc Biol 18: 954-960, 1998), and Rote, et al. (Cardiovasc Res 27: 500-507, 1993). Healthy male or female purpose-bred beagle dogs (9-13 kg) were anesthetized with sodium pentobarbital (30 mg/kg, i.v.), intubated and ventilated with room air at a tidal volume of 30 ml/kg and a rate of 12 breaths per minute. The left carotid artery (LCA) was exposed by blunt dissection using care not to injure the vessel. An external adjustable stainless steel constrictor was shaped to fit each vessel and adjusted with a nylon screw (2 mm in diameter) to reduce the pulsatile flow pattern by 50% without altering the mean carotid artery blood flow rate. Vascular injury was accomplished with the application of a low anodal current to the intimal surface of the vessel via an intravascular electrode composed of a Teflon® insulated, silver-coated, copper wire. The intravascular electrode was connected to the positive pole (anode) of a dual-channel square wave generator (Grass S88 stimulator) and a Grass Constant Current Unit; model CCUIA (Grass Instrument Division, Astro-Med, Inc. West Warwick, R.I.). The cathode was attached at a remote subcutaneous site. The current (300 μA) applied to the intimal surface of the vessel was monitored continuously. The intravascular electrode and mechanical constrictor were upstream with respect to the flow probe. Blood flow in the carotid artery was quantified using a graded patency scoring system of 0-3 as described previously (16), in which a score of 0 represents no flow (total occlusion), 1-2 represents varying degrees of reduced and cyclic patterns of flow and 3 represents non-oscillatory or uninterrupted blood flow.
FIG. 8 illustrates the experimental protocol. Twenty-eight dogs were randomized between four treatment groups receiving either DDA (10, 30 or 50 mg/kg i.v. n=7 per group) or 0.9% NaCl (n=7). Experimental thrombosis of the left carotid artery (LCA) was induced to achieve total occlusion of blood flow. Thirty minutes later, the animals received an intravenous infusion of DDA or an equivalent volume of 0.9% NaCl solution for thirty minutes (flow rate depended on dose of DDA). The drug treatment was followed by intra-carotid administration of rtPA (0.54 μg/kg bolus+3.26 μg/kg/h infusion) delivered immediately proximal to the occlusive thrombus. The infusion of rtPA was discontinued 10 min after establishing 20% of the original flow. The end-point determinations consisted of: (1) time to thrombolysis, (2) incidence of LCA reocclusion (secondary thrombosis), (3) vessel patency scores assessed by dynamic flow recordings, and (4) thrombus weight.
The data are expressed as mean±SEM and were analyzed by one-way analysis of variance for group comparisons followed by a Dunnett's post hoc t-test to determine the level of significance. The incidence of carotid artery reocclusion was compared between the groups by chi-square test. The change over time in the vessel blood flow patency score was compared between two groups by two-way analysis of variance followed by Bonferroni post-tests to determine the level of significance. Values are considered statistically different at p<0.05.

platelet aggregation = assay: Ex vivo platelet aggregation induced with ADP or AA; assay type: in vivo, beagle dogs
Experimental: Whole blood (10 ml) was drawn from a right femoral vein cannula into a plastic syringe containing 3.7% sodium citrate as the anticoagulant (1:100 volume ratio of citrate to blood). A whole blood cell count was determined with an H-2000 cell counter (Texas International Laboratories, Inc., Culver City, Calif.). Platelet-rich plasma (PRP), the supernatant present after centrifugation of whole blood at 100×g for 10 min, was diluted with Platelet-poor plasma (PPP) to achieve a platelet count of approximately […]. PPP was prepared by centrifuging the remaining blood at 1,500×g for 10 min and discarding the bottom cellular layer. Ex vivo platelet aggregation was assessed by established spectrophotometric methods with the use of a four-channel aggregometer (BioData PAP-4; BioData Corp., Horsham, Pa.) by recording the increase in light transmission through a stirred suspension of PRP maintained at 37° C. Aggregation was induced with ADP (20 μM) or AA (0.65 mM). A subaggregatory concentration of epinephrine (550 nM) was used to prime the platelets before addition of the agonists to induce platelet aggregation. Values for platelet aggregation are expressed as percentage of light transmission standardized to PRP and PPP samples yielding 0 and 100% light transmission, respectively.

[2] = DDA 10 mg/kg i.v. followed by rt-PA
[3] = DDA 30 mg/kg i.v. followed by rt-PA
[4] = DDA 50 mg/kg i.v. followed by rt-PA

For `CC1=C(/C=C/C(C)=C/C=C/C(C)=C/C=C/C=C(C)/C=C/C=C(C)/C=C/C2=C(C)C(=O)C(OC(=O)CCC(=O)O)CC2(C)C)C(C)(C)CC(OC(=O)CCC(=O)O)C1=O` (centres unmarked) [DDA, Disodium disuccinate astaxanthin], the maximum aqueous dispersibility (Aqueous dispersibility) was “approximately 10 mM and ~8.64 mg/ml”, the “Incidence of Re-occlusion” value [1, 2] was 6/7 and the “Platelet Count (Post rt-PA)” value [1, 2] was 352 ± 37. The Time to thrombolysis [1, 2] was 20.3 ± 6.7 min, the “arterial patency score (0-3)” value ([1]; DDA 10 mg/kg, 0-30 min after rt-PA) was 1.4 ± 0.2 and the “arterial patency score (0-3)” value ([1]; DDA 10 mg/kg, 30-60 min after rt-PA) was 1.3 ± 0.4. The “arterial patency score (0-3)” value ([1]; DDA 10 mg/kg, 60-90 min after rt-PA) was 1.1 ± 0.3, the “arterial patency score (0-3)” value ([1]; DDA 10 mg/kg, 90-120 min after rt-PA) was 1.1 ± 0.4 and the “arterial patency score (0-3)” value ([1]; DDA 10 mg/kg, 120-150 min after rt-PA) was 0.4 ± 0.4. For the same molecule, the “arterial patency score (0-3)” value ([1]; DDA 10 mg/kg, 150-180 min after rt-PA) was 0.4 ± 0.4, the “Incidence of Re-occlusion” value [1, 3] was 3/7 and the “Platelet Count (Post rt-PA)” value [1, 3] was 316 ± 32. For the same molecule, the Time to thrombolysis [1, 3] was 20.6 ± 7.9 min, the “reduction in thrombus weights compared to 0.9% NaCl solution” value ([1]; DDA 30 mg/kg i.v.) was 43±4% and the “arterial patency score (0-3)” value ([1]; DDA 30 mg/kg, 0-30 min after rt-PA) was 1.3 ± 0.2. The “arterial patency score (0-3)” value ([1]; DDA 30 mg/kg, 30-60 min after rt-PA) was 1.3 ± 0.4, the “arterial patency score (0-3)” value ([1]; DDA 30 mg/kg, 60-90 min after rt-PA) was 1.0 ± 0.4 and the “arterial patency score (0-3)” value ([1]; DDA 30 mg/kg, 90-120 min after rt-PA) was 1.6 ± 0.5. For the same molecule, the “arterial patency score (0-3)” value ([1]; DDA 30 mg/kg, 120-150 min after rt-PA) was 1.1 ± 0.5, the “arterial patency score (0-3)” value ([1]; DDA 30 mg/kg, 150-180 min after rt-PA) was 1.4 ± 0.5 and the “Incidence of Re-occlusion” value [1, 4] was 1/7. The “Platelet Count (Post rt-PA)” value [1, 4] was 363 ± 66, the Time to thrombolysis [1, 4] was 24.0 ± 6.0 min and the “reduction in thrombus weights compared to 0.9% NaCl solution” value ([1]; DDA 50 mg/kg i.v.) was 42±5%. For the same molecule, the “arterial patency score (0-3)” value ([1]; DDA 50 mg/kg, 0-30 min after rt-PA) was 1.9 ± 0.3, the “arterial patency score (0-3)” value ([1]; DDA 50 mg/kg, 30-60 min after rt-PA) was 2.4 ± 0.3 and the “arterial patency score (0-3)” value ([1]; DDA 50 mg/kg, 60-90 min after rt-PA) was 2.3 ± 0.4. For the same molecule, the “arterial patency score (0-3)” value ([1]; DDA 50 mg/kg, 90-120 min after rt-PA) was 2.3 ± 0.5, the “arterial patency score (0-3)” value ([1]; DDA 50 mg/kg, 120-150 min after rt-PA) was 2.3 ± 0.4 and the “arterial patency score (0-3)” value ([1]; DDA 50 mg/kg, 150-180 min after rt-PA) was 2.3 ± 0.5. The “time to clot lysis compared with 0.9% NaCl-treated animals” value ([1]; DDA 10, 30 or 50 mg/kg followed by rt-PA) was “similar”, the “whole blood platelet counts” value ([1]; dog, in vivo) was “unaffected” and the “vessel patency score during the protocol” value ([1]; intermediate and highest doses of DDA (30 and 50 mg/kg)) was “progressive improvement”. The “ex vivo platelet aggregation responses to AA and ADP” value (platelet aggregation; DDA 10, 30 or 50 mg/kg, ADP 20 μM or AA 0.65 mM) was “dose dependently attenuated” and the “ex vivo platelet aggregation” value (platelet aggregation; DDA 30 and 50 mg/kg doses) was “Significant reductions”.
